Experiments:
Type in all cases: cell-based, human
TGR23 gene in LS 174T = experiment: Reduction of TGR23 gene expression (TaqMan PCR); conditions: overnight after transfection
Procedure: (§1) The human colon cancer cell lines COLO 205 and LS 174T, wherein both were used in Example 46, were suspended in the same medium as that used in Example 46. The COLO 205 was seeded at the cell density of 24,000 per well to 24-well collagen type I coated plate (IWAKI), and the LS 174T was seeded at the cell density of 18,000 per well to 24-well flat bottom tissue culture plate (BD Falcon). After cell culture under 5% CO2 gas flow at 37° C. for overnight, in accordance with the method described in Example 46, the antisense oligonucleotide and control oligonucleotide, wherein both were used in Example 46, were transfected. Herein, adding volume of the oligonucleotide solution per well was 390 μl for COLO 205 and 300 μl for LS 174T. After transfection, the cells were cultured under 5% CO2 gas flow at 37° C. for overnight. Subsequently, using RNeasy Mini Total RNA Kit (QIAGEN), total RNA was extracted. Using the thus obtained total RNA as a template and TaqMan Reverse Transcription Reagents (Applied Biosystems), according to the attached protocol, reverse transcription reaction was carried out. Then using TaqMan Universal PCR Master Mix (Applied Biosystems), to the reaction sixture, cDNA corresponding 1.5 to 3 ng of total RNA as a template, 500 nM each of two primers (SEQ ID NO: 9 and SEQ ID NO: 10) and 100 nM FM-labeled probe (SEQ ID NO: 11) were added. The expressed copy numbers of the TGR23 gene were measured. The PCR reaction comprised the incubation at 50° C. for 2 minutes and 95° C. for 10 minutes, followed by the cycle set to include at 95° C. for 15 seconds and at 60° C. for one minute, which is repeated 40 times. When the antisense oligonucleotide and the control oligonucleotide were not transfected, an expression level of the TGR23 gene per 1 ng of total RNA was 620 copies for COLO 205 and 290 copies for LS 174T, whereas in the group with antisense oligonucleotide, it was 210 copies for COLO 205 and 150 copies for LS 174T. […] On the other hand, in the group with control oligonucleotide used as a negative control, the expression was 590 copies for COLO 205 and 280 copies for LS 174T, wherein it was not observed a statistically significant reduction of expression level, compared with non-transfection group.

TGR23 gene in COLO 205 = experiment: Reduction of TGR23 gene expression (TaqMan PCR); conditions: COLO 205, overnight after transfection
Procedure: as §1

HCT 116 = experiment: Apoptosis induction (Cell Death Detection ELISA PLUS); conditions: for Apoptosis inducing activity (A405-A492), Average: HCT 116, oligonucleotide 520 nM, three days
Procedure: (§2) Human colon cancer cell line COLO 205 acquired from ATCC was suspended in the RPMI-1640 medium (containing 25 mM HEPES) supplemented with 10% fetal calf serum (ATCC), and seeded at the cell density of 4000 per well in 96-well collagen type I coated plate (IWAKI). Human colon cancer cell line LS 174T acquired from ATCC was suspended in the Eagle's MEM, which is supplied from Invitrogen, supplemented with 10% fetal calf serum (ATCC), and seeded at the cell density of 3000 per well in 96-well flat bottom culture plate (BD Falcon). Human colon cancer cell line HCT 116 (ATCC) was suspended in D-MEM medium (containing 10 mM HEPES), which is supplied from Invitrogen, supplemented with 10% fetal calf serum (ATCC), and seeded at the cell density of 3000 per well in 96-well flat bottom culture plate (BD Falcon). After incubation under 5% CO2 gas flow at 37° C. for overnight, antisense oligonucleotide was transfected.
(§3) Antisense oligonucleotide sequence (SEQ ID NO: 123), which hybridizes to the translation region of TGR23 gene, was designed. Phosphorothioate-oligonucleotide was synthesized and purified by HPLC to use the transfection experiment (hereinafter, referred to as antisense oligonucleotide). For control, a reverse sequence (SEQ ID NO: 124) of the base sequence represented by SEQ ID NO: 123 was phosphorothioated and purified by HPLC to use (hereinafter, referred to as control oligonucleotide).
(§4) Specifically, in the case of COLO 205, to FuGENE™6 Transfection Reagent (Roche Diagnostics), which was diluted 167 fold with Opti-MEM I (Invitrogen), antisense oligonucleotide or control oligonucleotide was added. The mixed oligonucleotide solution was added to the plate at the ratio of 65 μl per well. The final concentration of oligonucleotide was adjusted to 200 nM. In the case of LS 174T, to Lipofectamine™2000 (Invitrogen), which was diluted 32 fold with Opti-MEM I (Invitrogen), antisense oligonucleotide or control oligonucleotide, which was diluted with Opti-MEM I (Invitrogen), was added at the ratio of 1:1. The mixed oligonucleotide solution was added to the plate at the ratio of 50 μl per well. The final concentration of oligonucleotide was adjusted to 33 nM. In the case of HCT 116, to OLIGOFECTAMINE™ Reagent (Invitrogen), which was diluted 5 fold with Opti-MEM I (Invitrogen), antisense oligonucleotide or control oligonucleotide, which was diluted with Opti-MEM I (Invitrogen), was added at the ratio of 3:8. The mixed oligonucleotide solution was added to the plate at the ratio of 40 μl per well. The final concentration of oligonucleotide was adjusted to 520 nM.
(§5) Under the above conditions, culture was continued for further three days. Using Cell Death Detection ELISA^PLUS Kit (Roche Diagnostics), in accordance with the attached protocol, apopyosis induction activity by the above oligonucleotide was measured.

LS 174T = experiment: as above; conditions: for Apoptosis inducing activity (A405-A492), Average: LS174T, oligonucleotide 33 nM, three days
Procedure: as §2, §3, §4, §5

COLO 205 = experiment: as above; conditions: for Apoptosis inducing activity (A405-A492), Average: COLO 205, oligonucleotide 200 nM, three days
Procedure: as §2, §3, §4, §5

Row | Substance | expression level of the TGR23 gene per 1 ng of total RNA (TGR23 gene in LS 174T) [copies] | expression level of the TGR23 gene per 1 ng of total RNA (TGR23 gene in COLO 205) [copies] | apoptosis induction activity compared with control oligonucleotide (HCT 116; HCT 116, in which TGR23 is not expressed) | Apoptosis inducing activity (A405-A492), Average (HCT 116) | Apoptosis inducing activity (A405-A492), Average (LS 174T) | apoptosis induction activity relative to control oligonucleotide (LS 174T; LS 174T, p≦0.01) [fold] | Apoptosis inducing activity (A405-A492), Average (COLO 205) | apoptosis induction activity relative to control oligonucleotide (COLO 205; COLO 205, p≦0.05) [fold]
1 | antisense oligonucleotide: phosphorothioate oligonucleotide which hybridizes to the translation region of TGR23 gene (antisense GACCCACAGAGTTATCAATT; DNA, all phosphorothioate, methylation of C not given here) | 150 | 210 | did not exhibit a significant apoptosis induction activity | 0.68 | 1.1 | 1.3 | 0.83 | 1.6
2 | control oligonucleotide: phosphorothioated reverse sequence of SEQ ID NO: 123, negative control (TTAACTATTGAGACACCCAG; DNA, all phosphorothioate, methylation of C not given here) [reference compound] | 280 | 590 | – | 0.72 | 0.88 | – | 0.52 | –
